In ChEMBL document CHEMBL3045957, “Synthesis and antimicrobial activity of some new 3[5-(4-substituted) phenyl-1,3,4-oxadiazole-2yl]-2- styrylquinazoline-4(3H)-ones” (2008):
Values after ≈ are worked out from the molar mass of the structure shown. Active and inactive are the calls of the source. The calls are words filed in the database; no cut-off is given here.

Key:
Assay type in all cases: functional
Fusarium oxysporum = experiment: Antifungal activity against Fusarium oxysporum by liquid dilution technique
Aspergillus niger = experiment: Antifungal activity against Aspergillus niger MTCC 1344 by liquid dilution technique
Escherichia coli = experiment: Antibacterial activity against Escherichia coli MTCC 40 by liquid dilution technique
Pseudomonas aeruginosa = experiment: Antibacterial activity against Pseudomonas aeruginosa MTCC 424 by liquid dilution technique
Bacillus subtilis = experiment: Antibacterial activity against Bacillus subtilis MTCC 619 by liquid dilution technique
Staphylococcus aureus = experiment: Antibacterial activity against Staphylococcus aureus MTCC 96 by liquid dilution technique

MIC (Fusarium oxysporum)	MIC (Aspergillus niger)	MIC (Escherichia coli)	MIC (Pseudomonas aeruginosa)	MIC (Bacillus subtilis)	MIC (Staphylococcus aureus)	Compound
180 µg/mL (≈ 565 µM)	165 µg/mL (≈ 518 µM)	115 µg/mL (≈ 361 µM)	138 µg/mL (≈ 434 µM)	122 µg/mL (≈ 383 µM)	127 µg/mL (≈ 399 µM)	Cc1ccc(-c2nnc(-n3c(C)nc4ccccc4c3=O)o2)cc1
inactive	inactive	inactive	inactive	inactive	inactive	COc1ccc(-c2nnc(-n3c(/C=C/c4ccc(C)cc4)nc4ccccc4c3=O)o2)cc1
inactive	inactive	inactive	inactive	inactive	inactive	O=c1c2ccccc2nc(/C=C/c2ccc(Cl)cc2)n1-c1nnc(-c2ccccc2)o1
inactive	inactive	inactive	inactive	inactive	inactive	Cc1ccc(/C=C/c2nc3ccccc3c(=O)n2-c2nnc(-c3ccccc3)o2)cc1
8 µg/mL (≈ 23.2 µM)	6 µg/mL (≈ 17.4 µM)	–	–	–	–	Clc1ccccc1C(c1ccccc1)(c1ccccc1)n1ccnc1 [CLOTRIMAZOLE]
inactive	inactive	inactive	inactive	inactive	inactive	O=c1c2ccccc2nc(/C=C/c2ccc(Cl)cc2)n1-c1nnc(-c2ccc(Cl)cc2)o1
inactive	inactive	inactive	inactive	inactive	inactive	COc1ccc(-c2nnc(-n3c(/C=C/c4ccc(Cl)cc4)nc4ccccc4c3=O)o2)cc1
inactive	inactive	inactive	inactive	inactive	inactive	Cc1ccc(/C=C/c2nc3ccccc3c(=O)n2-c2nnc(-c3ccc(N(C)C)cc3)o2)cc1
179 µg/mL (≈ 515 µM)	170 µg/mL (≈ 489 µM)	84 µg/mL (≈ 242 µM)	95 µg/mL (≈ 273 µM)	88 µg/mL (≈ 253 µM)	88 µg/mL (≈ 253 µM)	Cc1nc2ccccc2c(=O)n1-c1nnc(-c2ccc(N(C)C)cc2)o1
184 µg/mL (≈ 543 µM)	172 µg/mL (≈ 508 µM)	82 µg/mL (≈ 242 µM)	98 µg/mL (≈ 289 µM)	84 µg/mL (≈ 248 µM)	89 µg/mL (≈ 263 µM)	Cc1nc2ccccc2c(=O)n1-c1nnc(-c2ccc(Cl)cc2)o1
141 µg/mL (≈ 330 µM)	130 µg/mL (≈ 305 µM)	70 µg/mL (≈ 164 µM)	86 µg/mL (≈ 201 µM)	75 µg/mL (≈ 176 µM)	79 µg/mL (≈ 185 µM)	O=c1c2ccccc2nc(/C=C/c2ccccc2)n1-c1nnc(-c2ccc(Cl)cc2)o1
inactive	inactive	inactive	inactive	inactive	inactive	Cc1ccc(/C=C/c2nc3ccccc3c(=O)n2-c2nnc(-c3ccc(C)cc3)o2)cc1
192 µg/mL (≈ 631 µM)	185 µg/mL (≈ 608 µM)	120 µg/mL (≈ 394 µM)	135 µg/mL (≈ 444 µM)	127 µg/mL (≈ 417 µM)	130 µg/mL (≈ 427 µM)	Cc1nc2ccccc2c(=O)n1-c1nnc(-c2ccccc2)o1
152 µg/mL (≈ 387 µM)	143 µg/mL (≈ 364 µM)	76 µg/mL (≈ 194 µM)	90 µg/mL (≈ 229 µM)	80 µg/mL (≈ 204 µM)	82 µg/mL (≈ 209 µM)	O=c1c2ccccc2nc(/C=C/c2ccccc2)n1-c1nnc(-c2ccccc2)o1
156 µg/mL (≈ 384 µM)	145 µg/mL (≈ 357 µM)	81 µg/mL (≈ 199 µM)	92 µg/mL (≈ 226 µM)	83 µg/mL (≈ 204 µM)	85 µg/mL (≈ 209 µM)	Cc1ccc(-c2nnc(-n3c(/C=C/c4ccccc4)nc4ccccc4c3=O)o2)cc1
inactive	inactive	inactive	inactive	inactive	inactive	COc1ccc(-c2nnc(-n3c(/C=C/c4ccccc4)nc4ccccc4c3=O)o2)cc1
inactive	inactive	inactive	inactive	inactive	inactive	CN(C)c1ccc(-c2nnc(-n3c(/C=C/c4ccc(Cl)cc4)nc4ccccc4c3=O)o2)cc1
inactive	inactive	inactive	inactive	inactive	inactive	Cc1ccc(/C=C/c2nc3ccccc3c(=O)n2-c2nnc(-c3ccc(Cl)cc3)o2)cc1
175 µg/mL (≈ 523 µM)	165 µg/mL (≈ 494 µM)	80 µg/mL (≈ 239 µM)	100 µg/mL (≈ 299 µM)	85 µg/mL (≈ 254 µM)	90 µg/mL (≈ 269 µM)	COc1ccc(-c2nnc(-n3c(C)nc4ccccc4c3=O)o2)cc1
166 µg/mL (≈ 381 µM)	155 µg/mL (≈ 356 µM)	79 µg/mL (≈ 181 µM)	94 µg/mL (≈ 216 µM)	83 µg/mL (≈ 191 µM)	88 µg/mL (≈ 202 µM)	CN(C)c1ccc(-c2nnc(-n3c(/C=C/c4ccccc4)nc4ccccc4c3=O)o2)cc1
inactive	inactive	inactive	inactive	inactive	inactive	Cc1ccc(-c2nnc(-n3c(/C=C/c4ccc(Cl)cc4)nc4ccccc4c3=O)o2)cc1

Compound	MIC (Fusarium oxysporum)	MIC (Aspergillus niger)	MIC (Escherichia coli)	MIC (Pseudomonas aeruginosa)	MIC (Bacillus subtilis)	MIC (Staphylococcus aureus)
CCn1cc(C(=O)O)c(=O)c2cc(F)c(N3CCNCC3)cc21 [NORFLOXACIN]	–	–	4 µg/mL (≈ 12.5 µM)	8 µg/mL (≈ 25.1 µM)	5 µg/mL (≈ 15.7 µM)	6 µg/mL (≈ 18.8 µM)
